Source: patent US11116774B2, “Modulators of toll-like receptors for the treatment of HIV” (Gilead Sciences, Inc., priority 2014, dated 2021)
Values joined by “and” are separate entries in the source; they are usually repeats but may differ in a detail not shown here. Identical values can stand only once.

Key:
[1] = test system: peripheral CD8 lymphocytes (CD3+CD8+CD4−); experiment: Peripheral lymphocyte activation, CD69 by flow cytometry: CD8 lymphocytes (Example 206); format: in vivo, rhesus macaque
Text: (§1) During the course of treatment with the compound of Example 4 as described in Example 204, peripheral lymphocyte activation was monitored in the groups dosed with the compound of Example 4 or the dosing vehicle of Example 201 (placebo), by measuring the expression of the early activation marker CD69 on various lymphocyte subsets by flow cytometry methodology. This methodology was used to quantify the percentage of immune cell subsets expressing the early activation marker. Standard data acquisition techniques were employed on a flow cytometer and by the use of antibodies conjugated to fluorescent molecules where the antibodies recognize rhesus macaque cell surface proteins on various immune cell subsets. In animals dosed with the compound of Example 4, whole blood samples were collected for each dose at various time points both at pre- and post-administration of compound. Total PBMCs were stained in the whole blood samples using antibodies that were chosen to be reactive to rhesus CD3, CD4, CD8, NKG2A, CD16 and CD56, each conjugated to different fluorescent probes to delineate CD3+CD4+CD8− lymphocytes, CD3+CD4−CD8+ lymphocytes and CD3-CD8+ NKG2A+CD16+ CD56+ NK cells. The flow cytometry data presented herein are from animals treated with the compound of Example 4.

[2] = test system: peripheral NK cells (CD3-CD8+ NKG2A+CD16+CD56+); experiment: Peripheral lymphocyte activation, CD69 by flow cytometry: NK cells (Example 206); format: in vivo, rhesus macaque
Text: as §1

[3] = test system: HIV-infected CD4 T cells (HIV-1 clinical isolate HT593); experiment: Killing of HIV-infected CD4 T cells by combination of Example 49 and HIV antibody PGT121 (Example 218); format: cell-based, human; conditions: 5 days, combined with PGT121, two donors
Experimental: PBMCs from […] (AllCells: Donor IDs A4593, A4596, A4606) were isolated, as described previously. PBMCs were treated with DMSO or with the compound of Example 49 (GS-9620) at 0.1 uM or 1 uM in replicate culture sets of 8 for 5 days. In parallel, total CD4 T cells were isolated from each donors' PBMCs using the EasySep Human CD4+ T cell Enrichment Kit (Stemcell Technologies). CD4 T cells were infected in bulk with the HIV-1 clinical isolate HT593 (NIH AIDS Reagent Program) using 50-100 ng p24/million CD4 T cells by spinfecting at 1200×g for 2 hours. HIV-infected CD4 T cells were incubated for 5 days at 37° C. in RPMI plus 10% FBS with 30 U/mL IL-2 (Invitrogen). After 5 days in culture, HIV-infected CD4 T cells were washed, counted, and added to PBMCs from the autologous donor at a ratio of 20 PBMCs to 1 CD4 T cell (20:1). To each co-culture replicate, HIV antibody PGT121 (Gilead Sciences, Inc.) was added at concentrations from 6.7e-5 nM to 6.7e2 nM. Co-cultures were incubated with or without HIV antibody for 1 day at 37° C.
Co-cultures were collected and stained with live/dead Fixable Aqua Dead Cell Stain (Invitrogen) and PE-Cy7-labeled antibody to CD4 (BD Biosciences). Cells were fixed and permeabilized, as described previously, and stained with PE labeled antibody to HIV Gag protein p24 (Beckman Coulter). FACS was performed on a LSR Fortessa (BD Biosciences) and data analysis was done with FlowJo software (TreeStar). Data was plotted and statistical analysis was done with GraphPad Prism software (GraphPad). Killing of HIV-infected CD4 T cells was calculated as a reduction of CD4+p24+ T cells at each PGT121 concentration relative to cultures without PGT121.

[4] = test system: polyfunctional proliferating CD8 T cells (CFSE low, IFNg+, TNFa+); experiment: Induction of HIV-specific polyfunctional CD8 T cells by combination with an IDO1 inhibitor (Example 217); format: cell-based, human; conditions: 0.1 uM; PBMCs from 4 HIV-infected donors; 8 days
Experimental: PBMCs from 4 HIV-infected donors (Donor IDs 180-183) on suppressive cART were isolated, as described previously, stained with CFSE, and treated with 500 ng/ml 15-mer peptide pools derived from overlapping HIV gag, pol, nef, and env consensus peptides (JPT Peptide Technologies GmbH). PBMC cultures were treated with DMSO or the compound of Example 49 (GS-9620) at 0.1 uM. In some cultures treated with Example 49, the IDO1 small molecule inhibitor, INCB024360, was combined at 2 μM. Cells were incubated at 37° C. for 8 days, then split into duplicate sets and stained in DPBS with LIVE/DEAD Fixable Aqua Dead Cell Stain (Life Technologies). The immune recall response was performed as previously described. FACS was performed on a LSR Fortessa (BD Biosciences) and data analysis was done with FlowJo software (TreeStar). Data was plotted and statistical analysis was done with GraphPad Prism software (GraphPad).

Row | Compound | mean maximum percent change in CD69 expression on CD8 lymphocytes ([1]; all subsequent 0.3 mg/kg doses) | mean maximum percent change in CD69 expression on CD8 lymphocytes ([1]; dose 0.1 mg/kg, any time point (rise 24 to 72 hours post-dose), pre-dose range 3.3-12.6%) | mean maximum percent change in CD69 expression on CD8 lymphocytes ([1]; dose 0.2 mg/kg, pre-dose range 3.0-15.7%) | mean maximum percent change in CD69 expression on CD8 lymphocytes ([1]; first dose of 0.3 mg/kg, pre-dose range 5.0-14.4%) | mean maximum percent change in CD69 expression on NK cells ([2]; dose 0.1 mg/kg, any time point (rise by 24 to 72 hours post-dose), pre-dose range 89-95%) | mean maximum percent change in CD69 expression on NK cells ([2]; dose 0.2 mg/kg, pre-dose range 83-95%) | mean maximum percent change in CD69 expression on NK cells ([2]; first dose of 0.3 mg/kg, pre-dose range 84-95%) | mean maximum percent change in CD69 expression on NK cells ([2]; second dose of 0.3 mg/kg, pre-dose range 82-97%) | increase of AUC relative to DMSO controls ([3]; Example 49 0.1 uM) | increase of maximal killing relative to DMSO controls ([3]; Example 49 0.1 uM) | increase of AUC relative to DMSO controls ([3]; Example 49 1 uM) | increase of maximal killing relative to DMSO controls ([3]; Example 49 1 uM) | increase of mean level of polyfunctional proliferating CD8 T cells compared to DMSO [4]
1 | CCCCOc1nc(N)c2c(n1)N(Cc1ccc(CN3CCCC3)cc1)CC(=O)N2 [Example 4] | 15.5% | 7.8% | 9.5% | 17.3% | 6.5% | 9.5% | 8.3% | 8.7% | – | – | – | – | –
2 | CCCCOc1nc(N)c2c(n1)N(Cc1cccc(CN3CCCC3)c1)CC(=O)N2 [Example 49] | – | – | – | – | – | – | – | – | 32% and 52% | 30% and 38% | 52% and 73% | 50% and 48% | 2.9 fold
